Test results reported in PMC7044277 (Nature Communications, 2020).
“And” between values parts separate entries of the source, which are not always exact repeats. Equal entries are not always repeated.

Experiments:
Format in all cases: cell-based
320 non-olfactory GPCRs [1] = biological target: 320 non-olfactory GPCRs (Homo sapiens, UniProt P14416)
320 non-olfactory GPCRs [2] = biological target: T1, 320 non-olfactory GPCRs (Homo sapiens, UniProt P48145); settings: receptor NPBW1; replicate values, Fig_4g
T1 construct: expressed in transfected cells; host or cells: HTLA cells
T1 sequence (P48145 whole entry): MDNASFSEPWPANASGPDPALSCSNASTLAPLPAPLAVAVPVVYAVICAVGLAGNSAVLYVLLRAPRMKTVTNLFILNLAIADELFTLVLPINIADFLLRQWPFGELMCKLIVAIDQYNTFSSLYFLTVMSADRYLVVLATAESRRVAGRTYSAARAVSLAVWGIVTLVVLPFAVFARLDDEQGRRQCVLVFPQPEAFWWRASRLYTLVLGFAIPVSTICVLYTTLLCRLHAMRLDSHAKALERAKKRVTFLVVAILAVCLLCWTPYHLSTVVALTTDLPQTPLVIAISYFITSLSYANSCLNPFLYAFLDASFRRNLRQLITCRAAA

320 non-olfactory GPCRs [3] = biological target: T2, 320 non-olfactory GPCRs (Homo sapiens, UniProt P51677)
T2 construct: expressed in transfected cells; host or cells: HTLA cells
T2 sequence (P51677 whole entry): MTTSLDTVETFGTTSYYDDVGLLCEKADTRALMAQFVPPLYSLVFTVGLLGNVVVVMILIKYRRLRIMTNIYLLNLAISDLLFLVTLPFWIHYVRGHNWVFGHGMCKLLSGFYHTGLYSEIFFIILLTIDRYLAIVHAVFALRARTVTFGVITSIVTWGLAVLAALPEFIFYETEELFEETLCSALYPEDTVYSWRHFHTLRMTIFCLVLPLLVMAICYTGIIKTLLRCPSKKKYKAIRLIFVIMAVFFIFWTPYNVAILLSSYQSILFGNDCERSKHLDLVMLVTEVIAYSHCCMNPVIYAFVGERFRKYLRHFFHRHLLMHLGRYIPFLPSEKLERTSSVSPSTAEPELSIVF

320 non-olfactory GPCRs [4] = biological target: T3, 320 non-olfactory GPCRs (Homo sapiens, UniProt Q9UBS5)
T3 construct: expressed in transfected cells; host or cells: HTLA cells
T3 sequence (Q9UBS5 20-961): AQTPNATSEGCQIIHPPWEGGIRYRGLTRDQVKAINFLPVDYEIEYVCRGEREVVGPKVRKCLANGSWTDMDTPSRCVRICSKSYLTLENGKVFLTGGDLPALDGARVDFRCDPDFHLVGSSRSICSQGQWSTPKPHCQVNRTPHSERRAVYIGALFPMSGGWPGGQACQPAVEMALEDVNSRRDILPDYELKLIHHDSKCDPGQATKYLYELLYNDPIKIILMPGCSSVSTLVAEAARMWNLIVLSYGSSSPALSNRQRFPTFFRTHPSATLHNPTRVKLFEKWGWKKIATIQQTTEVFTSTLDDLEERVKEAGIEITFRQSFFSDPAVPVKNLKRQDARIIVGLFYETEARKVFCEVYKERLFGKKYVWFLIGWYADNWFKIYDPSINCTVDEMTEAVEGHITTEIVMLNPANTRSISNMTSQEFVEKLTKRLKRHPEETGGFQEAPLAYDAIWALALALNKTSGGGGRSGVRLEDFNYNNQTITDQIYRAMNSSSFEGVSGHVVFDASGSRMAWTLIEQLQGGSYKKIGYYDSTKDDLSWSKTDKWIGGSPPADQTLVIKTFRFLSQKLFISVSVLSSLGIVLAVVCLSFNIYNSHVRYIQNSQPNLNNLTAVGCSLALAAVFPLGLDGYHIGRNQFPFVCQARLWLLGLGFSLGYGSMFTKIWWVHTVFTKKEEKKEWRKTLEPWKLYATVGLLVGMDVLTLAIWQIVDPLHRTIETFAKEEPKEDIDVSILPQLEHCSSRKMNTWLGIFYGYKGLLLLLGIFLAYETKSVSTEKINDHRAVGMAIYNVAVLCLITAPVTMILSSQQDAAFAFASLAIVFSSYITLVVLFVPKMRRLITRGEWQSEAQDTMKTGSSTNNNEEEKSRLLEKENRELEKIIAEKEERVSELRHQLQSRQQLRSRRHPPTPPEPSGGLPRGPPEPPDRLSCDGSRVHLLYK
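For Fold of Basal in this document: compound tested at 1 µM final concentration.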
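For GPCRome agonism screen response in this document: fold over basal response of each receptor without drug.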

Sequence of 320 non-olfactory GPCRs (Homo sapiens, UniProt P14416) (P14416 whole entry): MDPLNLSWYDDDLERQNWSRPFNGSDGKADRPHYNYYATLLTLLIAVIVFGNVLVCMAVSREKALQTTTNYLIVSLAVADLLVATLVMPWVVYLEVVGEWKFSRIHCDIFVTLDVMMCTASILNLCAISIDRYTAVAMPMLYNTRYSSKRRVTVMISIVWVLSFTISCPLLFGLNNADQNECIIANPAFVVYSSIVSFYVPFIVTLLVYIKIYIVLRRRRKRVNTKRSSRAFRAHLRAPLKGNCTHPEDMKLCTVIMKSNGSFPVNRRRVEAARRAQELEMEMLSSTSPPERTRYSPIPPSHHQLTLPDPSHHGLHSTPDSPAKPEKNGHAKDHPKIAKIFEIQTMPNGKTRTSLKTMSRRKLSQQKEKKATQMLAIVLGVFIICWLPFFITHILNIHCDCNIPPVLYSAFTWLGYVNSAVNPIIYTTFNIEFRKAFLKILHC

For `CCOc1cccc2cc(C(C)NCC3(O)CCCCC3)oc12` (stereo not shown) [O4LE6], the “Fold of Basal” value (320 non-olfactory GPCRs [1]) was 84.6178 and 80.3873 and 78.6628 and 75.3887, the “GPCRome agonism screen response” value (320 non-olfactory GPCRs [2]) was 1.094 and 1.2601 and 1.077 and 0.8815 and the “Fold of Basal” value (320 non-olfactory GPCRs [3]) was 1.539 and 1.182 and 0.9454 and 0.9656. For the same compound, the “Fold of Basal” value (320 non-olfactory GPCRs [4]) was 0.7465 and 0.7299 and 1.058 and 0.6886.
